Data set [1] can be described thus: Stability at different pH values (UV-vis absorbance). It is filed as physicochemical. The conditions noted are these: for pH stability: 100 µM buffered solutions, pH 2 to 8. The method, then: Buffer solutions with pH values between 2 and 8 were prepared and their pH was measured. The buffer solutions were prepared according to Portuguese Pharmacopeia 11.0 specifications. Each compound solution (100 µM) buffered at a specific pH was prepared in triplicate. The solutions were stored at room temperature and protected from light. Aliquots of 3.00 mL were transferred to quartz cuvettes at specific time points, and their absorbance was measured by ultraviolet/visible (UV–vis) spectrophotometry. The blank for each pH corresponded to 3.00 mL of the respective buffer.

The nature of data set [2]: Stability at different temperatures, pH 5 (UV-vis absorbance). The class given is physicochemical. The conditions noted are these: for thermostability: pH 5, 4, 25, 40 and 60 °C. The method, then: Each compound solution (100 µM) buffered at pH 5 was prepared in triplicate. The other three samples were stored at 4 °C, 25 °C, 40 °C, and 60 °C, protected from light. Aliquots of 3.00 mL were transferred to quartz cuvettes at specific time points, and their absorbance was measured by UV–vis spectrophotometry. The blank of each pH corresponded to 3.00 mL of respective buffer. Stability was determined in terms of the change in the maximum peak absorbance.

Data set [3] relates to NO production in LPS-stimulated RAW 264.7 macrophages. The experiment in a line: NO production in LPS-stimulated macrophages (Griess assay). It is filed as cell-based, mouse. The conditions noted are these: LPS 100 ng/mL, 24 h. As to the method: The human keratinocytes (HaCaT, CLS 300493, Eppelheim, Germany) cell line was cultured with Dulbecco’s Modified Eagle’s Medium (DMEM) (Sigma-Aldrich, St. Louis, MO, USA), supplemented with 10% (v/v) of heat-inactivated fetal bovine serum (FBS), 1% (v/v) antibiotic solution (from a 10,000 U/mL penicillin and 10,000 μg/mL streptomycin stock) (Gibco, Carlsbad, CA, USA), 3.7 g/L sodium bicarbonate, and 1 mM sodium pyruvate (Sigma-Aldrich, St. Louis, MO, USA). The cell culture of keratinocytes was detached with EDTA solution 1X (Sigma-Aldrich, St. Louis, MO, USA) when the cells reached 70–80% confluence in cell culture flasks. The mouse macrophage cell line (RAW 264.7, ATCC TIB-71, Manassas, VA, USA) was cultured in DMEM supplemented with 10% (v/v) non-inactivated FBS, 1% (v/v) antibiotic solution, 1.5 g/L sodium bicarbonate, and 1 mM sodium pyruvate. Macrophages were mechanically detached with a cell scraper and subcultured in (1:10) proportion of cellular suspension to a final volume of DMEM. The human monocytic cell line THP-1 (ATCC® TIB-202™, American Type Culture Collection, Manassas, VA, USA) was cultivated in RPMI 1640 supplemented with 10% inactivated FBS, 25 mM (D)-glucose, 10 mM HEPES, 1 mM sodium pyruvate, 100 U/mL penicillin, and 100 μg/mL streptomycin, and maintained at a cell density of 0.4 × 10^6 cells/mL. Cells were subcultured every 2 or 3 days and maintained in culture for 2–3 months, according to ATCC® instructions. Nitric oxide (NO) production was measured by quantifying the accumulation of nitrites in culture supernatants using the Griess assay. […] After a 30 min incubation period at room temperature, protected from light, the absorbance was read at 550 nm using a microplate spectrophotometer. The concentration of nitrites present in the supernatants was determined by interpolation of the absorbance of each sample in a sodium nitrite standard curve. The results of four independent experiments, in duplicate, were expressed as the percentage of NO production by cells versus the concentration of the chemicals compared with LPS (100%).
In general terms: Nitrite, measured by Griess reagent, commonly stands in for NO production.

For data set [4], the system named is THP-1 cells (CD54 and CD86 expression). The experiment in a line: Skin sensitization potential, h-CLAT (CD54 and CD86 expression). It is filed as cell-based, human. The conditions noted are these: THP-1, h-CLAT. An excerpt:
The cell culture of keratinocytes was detached with EDTA solution 1X (Sigma-Aldrich, St. Louis, MO, USA) when the cells reached 70–80% confluence in cell culture flasks. […] Macrophages were mechanically detached with a cell scraper and subcultured in (1:10) proportion of cellular suspension to a final volume of DMEM. […] Cells were subcultured every 2 or 3 days and maintained in culture for 2–3 months, according to ATCC® instructions.
Following OECD guidelines, researchers utilized the THP-1 human monocyte cell line as a substitute for dendritic cells (DCs) to assess skin sensitization potential. […] The cell pellet was further resuspended in 100 µL of PBS and analyzed by flow cytometry using a BD Accuri™ C6 cytometer (San Jose, CA, USA).
CD86 and CD54 levels were analyzed by flow cytometry using the acquisition channels FL1 and FL4. Mitochondrial O2^− production was measured by flow cytometry using the acquisition channel FL2. The relative fluorescence intensity (RFI) of CD86 and CD54 (THP-1 maturation assay) and MitoSOX (mitochondrial antioxidant activity) in the control and chemical-treated cells, based on the geometric mean fluorescence intensity (MFI), was calculated according to the following equation: RFI=MFI of chemical treated cells−MFI of chemical treated unstained cells/MFI of control treated cells−MFI of control unstained cells ×100

Entries after “also recorded” stand apart in the source; their conditions may differ.

Turning to `O=C1O[C@H]([C@@H](O)CO)C(O)=C1O` [AA, Ascorbic acid], the “pH stability” value in data set [1] is “unstable at acidic and neutral pH”. The compound also came in with a variations in absorbance in data set [1] (acidic and neutral pH, 100 µM aqueous buffer) greater than 90%. Further, the “thermostability” value in data set [2] was “decomposed with time at all the temperatures tested”. Also, the “absorbance normalized to t = 0” value in data set [2] (pH 5, 60 °C, in 2 h) is less than 30%; in data set [2] (pH 5, storage at 25 °C), less than 50%. Further, the “effect on NO production” value in data set [3] is listed as “inhibited NO production”. In data set [3] (relative to LPS = 100%), the “reduction of NO production” value is given as 30%.

Regarding `O=C1O[C@H]([C@@H](O)CO)C(O)=C1O[C@H]1O[C@H](CO)[C@@H](O)[C@H](O)[C@H]1O` [AAG, 2-O-α-D-glucopyranosyl-L-ascorbic acid], the “skin sensitization potential” value in data set [4] is “AA, AAG, and AAGS with non-sensitizer profile”. Moreover, in data set [3], the “effect on NO production” value is recorded as “inhibited NO production”.

For the compound `O=C1OC(C(COS(=O)(=O)O)OS(=O)(=O)O)C(OS(=O)(=O)O)=C1OC1OC(COS(=O)(=O)O)C(OS(=O)(=O)O)C(OS(=O)(=O)O)C1OS(=O)(=O)O` [AAGS, 2-O-α-D-glucopyranosyl-L-ascorbic acid persulfate], the “pH stability” value in data set [1] is given as “improved stability covering a larger range of pH values (pH = 2–6)”. In addition, the “skin sensitization potential” value in data set [4] is “non-sensitizing profile; also recorded: AA, AAG, and AAGS with non-sensitizer profile”. Further, the “thermostability” value in data set [2] is on record as “highest level of stability among the compounds”.

These data come from article PMC11477482 (Molecules, 2024).
